This note sets out measurements from ChEMBL document CHEMBL1143549, “Novel 4-amino-furo[2,3-d]pyrimidines as Tie-2 and VEGFR2 dual inhibitors” (Bioorg Med Chem Lett, 2005).

Experiment [1] concerns the target T1, Angiopoietin-1 receptor (Homo sapiens, UniProt Q02763). Nature of the experiment: Inhibitory concentration against human tyrosine protein kinase receptor TIE-2.
The target of experiment [2] is T1, Angiopoietin-1 receptor. Nature of the experiment: Concentration required to inhibit autophosphorylation of tyrosine protein kinase receptor TIE-2 transfected in 3T3 cells. Format: functional, cell-based, NIH3T3.
For experiment [3], the system named is HUVEC. Nature of the experiment: Concentration required for growth inhibition of human umbilical vein endothelial cells stimulated by VEGF. Format: functional, cell-based.
Experiment [4] deals with HFF. Nature of the experiment: Cytotoxic concentration against HFF cells was determined. Format: functional, cell-based. To be noted: Homo sapiens.
Experiment [5] concerns the target Vascular endothelial growth factor receptor 2 (Homo sapiens, UniProt P35968). Put plainly: Inhibitory concentration against human vascular endothelial growth factor receptor 2.

Structures are written as SMILES. Bounds are passed on as bounds.

Vascular endothelial growth factor receptor 2, sequence (P35968 whole entry): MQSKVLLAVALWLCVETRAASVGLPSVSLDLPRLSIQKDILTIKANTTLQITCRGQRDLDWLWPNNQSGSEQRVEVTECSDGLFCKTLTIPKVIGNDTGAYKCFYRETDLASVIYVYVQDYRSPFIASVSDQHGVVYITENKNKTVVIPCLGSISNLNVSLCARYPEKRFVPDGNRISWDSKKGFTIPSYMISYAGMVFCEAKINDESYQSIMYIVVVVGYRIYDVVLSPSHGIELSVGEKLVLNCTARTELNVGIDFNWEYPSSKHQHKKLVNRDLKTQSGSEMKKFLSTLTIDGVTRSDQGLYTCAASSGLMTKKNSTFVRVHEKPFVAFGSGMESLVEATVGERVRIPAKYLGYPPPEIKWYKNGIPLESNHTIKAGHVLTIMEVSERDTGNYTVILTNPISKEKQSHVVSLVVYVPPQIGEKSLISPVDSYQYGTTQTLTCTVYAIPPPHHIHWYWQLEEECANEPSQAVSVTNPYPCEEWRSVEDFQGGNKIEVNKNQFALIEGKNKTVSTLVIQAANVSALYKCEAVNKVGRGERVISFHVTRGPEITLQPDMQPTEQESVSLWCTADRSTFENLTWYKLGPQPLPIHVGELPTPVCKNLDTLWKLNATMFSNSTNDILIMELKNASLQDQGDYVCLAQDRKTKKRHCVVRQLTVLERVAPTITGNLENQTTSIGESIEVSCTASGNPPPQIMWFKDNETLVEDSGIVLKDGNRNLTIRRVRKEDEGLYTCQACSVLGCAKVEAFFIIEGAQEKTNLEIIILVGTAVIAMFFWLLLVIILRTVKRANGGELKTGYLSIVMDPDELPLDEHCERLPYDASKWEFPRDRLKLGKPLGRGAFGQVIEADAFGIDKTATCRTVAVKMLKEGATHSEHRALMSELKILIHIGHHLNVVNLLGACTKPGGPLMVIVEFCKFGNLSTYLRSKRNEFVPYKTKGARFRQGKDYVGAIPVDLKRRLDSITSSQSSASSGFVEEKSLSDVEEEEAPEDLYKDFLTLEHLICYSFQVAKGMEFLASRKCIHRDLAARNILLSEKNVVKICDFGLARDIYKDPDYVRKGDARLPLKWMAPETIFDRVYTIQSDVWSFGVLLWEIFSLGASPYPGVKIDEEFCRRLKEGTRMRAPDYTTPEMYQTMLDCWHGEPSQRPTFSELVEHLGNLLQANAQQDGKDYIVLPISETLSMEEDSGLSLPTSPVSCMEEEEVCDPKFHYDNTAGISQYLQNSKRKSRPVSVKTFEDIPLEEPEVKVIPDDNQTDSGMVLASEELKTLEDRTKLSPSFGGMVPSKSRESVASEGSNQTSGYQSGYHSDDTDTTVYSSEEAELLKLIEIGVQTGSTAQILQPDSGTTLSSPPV
T1 sequence (Q02763 whole entry): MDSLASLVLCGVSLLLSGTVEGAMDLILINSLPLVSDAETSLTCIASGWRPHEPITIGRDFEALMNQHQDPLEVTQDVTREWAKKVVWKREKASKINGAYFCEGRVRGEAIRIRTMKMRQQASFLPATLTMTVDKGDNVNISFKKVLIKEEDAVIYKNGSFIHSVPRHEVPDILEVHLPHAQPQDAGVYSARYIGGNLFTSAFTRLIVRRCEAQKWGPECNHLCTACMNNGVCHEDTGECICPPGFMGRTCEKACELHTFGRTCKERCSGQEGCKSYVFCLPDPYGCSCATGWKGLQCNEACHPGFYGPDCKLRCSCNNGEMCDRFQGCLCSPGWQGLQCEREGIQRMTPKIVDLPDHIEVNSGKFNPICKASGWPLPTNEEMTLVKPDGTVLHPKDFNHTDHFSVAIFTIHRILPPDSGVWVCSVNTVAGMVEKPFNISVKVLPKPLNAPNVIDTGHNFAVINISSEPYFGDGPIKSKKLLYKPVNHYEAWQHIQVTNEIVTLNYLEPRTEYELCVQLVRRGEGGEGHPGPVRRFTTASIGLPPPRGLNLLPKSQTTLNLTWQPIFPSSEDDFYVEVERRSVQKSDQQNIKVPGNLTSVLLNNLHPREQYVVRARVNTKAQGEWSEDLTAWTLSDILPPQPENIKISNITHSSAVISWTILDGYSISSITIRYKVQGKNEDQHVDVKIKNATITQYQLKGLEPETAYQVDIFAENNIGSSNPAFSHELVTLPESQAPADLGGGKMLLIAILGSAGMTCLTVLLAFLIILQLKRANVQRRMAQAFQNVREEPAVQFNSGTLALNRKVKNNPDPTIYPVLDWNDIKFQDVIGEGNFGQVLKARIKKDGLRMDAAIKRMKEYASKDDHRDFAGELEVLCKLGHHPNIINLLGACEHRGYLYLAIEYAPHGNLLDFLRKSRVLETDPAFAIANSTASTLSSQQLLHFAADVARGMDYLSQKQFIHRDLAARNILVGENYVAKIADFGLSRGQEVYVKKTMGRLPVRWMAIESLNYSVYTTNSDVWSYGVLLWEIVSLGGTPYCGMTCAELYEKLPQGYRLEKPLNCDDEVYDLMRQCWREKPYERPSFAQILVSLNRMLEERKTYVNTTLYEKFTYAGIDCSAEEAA

Turning to `COc1ccc(-c2oc3ncnc(N)c3c2-c2ccc(NC(=O)Nc3cc(C(F)(F)F)ccc3F)cc2)cc1`, the IC50 in experiment [1] came to 2 nM; in experiment [2], 6.3 nM; in experiment [3] it was 45 nM; in experiment [4] it was 790 nM; in experiment [5], 3 nM.

Regarding `COc1ccc(-c2oc3ncnc(N)c3c2-c2cccc(NC(C)=O)c2)cc1`, the IC50 in experiment [1] was > 20000 nM.

Regarding `COc1ccc(-c2oc3ncnc(N)c3c2-c2ccc(OC)cc2)cc1`, the figures for the IC50 in experiment [1] and in experiment [5] were 1000 nM and 1120 nM, respectively.

Take `COc1ccc(-c2c(-c3ccc(Cl)c(Cl)c3)oc3ncnc(N)c23)cc1`: the IC50 in experiment [5] is > 20000 nM.

For `COc1ccc(-c2coc3ncnc(N)c23)cc1` [GW642125X], the IC50 is > 20000 nM in experiment [1] and 5500 nM in experiment [5].

In the case of `COc1ccc(-c2cc3c(N)ncnc3o2)cc1` [GW642138X], the figures for the IC50 in experiment [1] and in experiment [5] were > 20000 nM and > 17000 nM, respectively.
